Source: US20110207916A1, “Dual Affinity Polypeptides for Purification” (priority 2007, published 2011)

How the values were obtained:
[1] = system: VhhRR6(R2)-Z (variable region of Llama single chain antibody against RR6 fused to Z domain of Staphylococcus aureus protein A, SEQ ID NO 28); assay: Biacore SPR, binding of DAP VhhRR6(R2)-Z to Reactive Red 6 ligand (biotin-Reactive Red 6 on SA chip); conditions: Table 1 (summary, rounded)
Text: (§1) The commercialised surface plasmon resonance (SPR) technology for real time monitoring biomolecular binding event is used to measure the binding affinities for the prepared DAP candidates. The general principle of this technology is that a SPR sensor chip measures changes in refractive index, and the changes in refractive index correlate to changes in mass in the aqueous layer close to the sensor surface. When target molecules in solution bind to ligands, immobilised on the sensor surface, the mass increases, and when they dissociate from the ligands the mass decreases. This principle facilitates a continuous, real time monitoring of the association and dissociation of interacting molecules. The graphical presentation of the relationship provides quantitative information in real time on the binding specificity, active concentration of molecule in a sample, reaction kinetics and affinity.
In order to evaluate the binding affinities for both of the binding affinities present in the DAP either IgG or the capturing ligand had to be immobilized onto the sensor chip. For IgG rabbit anti-Mannanase was used and for the ligand the chip was coated with streptavidin and the ligand was then immobilized via biotin linked to the appropriate ligand.
In order to measure the binding to RR6 and acarbose the following compounds were prepared; biotin-linked acarbose and biotin-linked RR6.
The mixture was stirred at RT for 30 min. […]
(§2) The DAP candidates were analysed for binding to the capturing ligand sensor chip and the target biomolecule sensor chip respectively. […]
Immobilisation occurred by direct covalent coupling to the surface (using the Amine Coupling Kit, BiaCore, GE Health Care) or via a capturing molecule as prescribed by the manufacturer (BiaCore, GE Health Care). The amount of coupled target was quantified and expressed in Refractive Units (RU).
Interactions were monitored by injecting samples (20 μl/min) over the prepared sensor surface of the chip. Unless stated otherwise, the binding was assessed in 10 mM sodium acetatbuffer pH 5.0 at room temperature. […]

[2] = system: VhhRR6(R2)-Z + IgG (variable region of Llama single chain antibody against RR6 fused to Z domain of Staphylococcus aureus protein A, SEQ ID NO 28, with IgG …); assay: Biacore SPR, binding of DAP VhhRR6(R2)-Z to Reactive Red 6 ligand in the presence of IgG; conditions: Table 1 footnote b; VhhRR6(R2)-Z mixed with IgG before loading to the Biacore
Text: as §1, with “affinity. […]” for “affinity.”
as §2
Immobilisation occurred by direct covalent coupling to the surface (using the Amine Coupling Kit, BiaCore, GE Health Care) or via a capturing molecule as prescribed by the manufacturer (BiaCore, GE Health Care). The amount of coupled target was quantified and expressed in […] (RU). […]

[3] = biological target: T1, AMG-Z (AMG(1-526aa)::Z, Aspergillus niger glucoamylase fused to Z domain of Staphylococcus aureus protein A, SEQ ID NO 25) (Aspergillus niger, UniProt P69328); assay: Biacore SPR, binding of DAP AMG-Z to acarbose ligand (biotin-acarbose on SA chip)
T1 construct: made in house; host or cells: Aspergillus oryzae (transformant JaL1171 of host BECh2)
T1 sequence (P69328 25-526, added parts left off): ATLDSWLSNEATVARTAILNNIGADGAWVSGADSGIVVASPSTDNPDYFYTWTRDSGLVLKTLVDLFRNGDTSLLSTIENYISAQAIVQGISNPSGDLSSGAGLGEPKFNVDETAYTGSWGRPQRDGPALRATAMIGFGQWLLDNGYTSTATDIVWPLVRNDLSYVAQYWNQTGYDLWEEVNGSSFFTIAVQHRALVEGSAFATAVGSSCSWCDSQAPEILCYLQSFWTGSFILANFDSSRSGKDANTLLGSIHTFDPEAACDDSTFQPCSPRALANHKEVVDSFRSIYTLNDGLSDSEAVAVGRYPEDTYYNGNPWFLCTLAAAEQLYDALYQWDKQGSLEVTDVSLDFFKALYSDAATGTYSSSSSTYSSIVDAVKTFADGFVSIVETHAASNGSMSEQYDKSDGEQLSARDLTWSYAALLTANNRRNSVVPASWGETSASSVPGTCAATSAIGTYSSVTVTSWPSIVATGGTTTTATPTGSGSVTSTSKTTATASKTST
Text: The commercialised surface plasmon resonance (SPR) technology for real time monitoring biomolecular binding event is used to measure the binding affinities for the prepared DAP candidates. The general principle of this technology is that a SPR sensor chip measures changes in refractive index, and the changes in refractive index correlate to changes in mass in the aqueous layer close to the sensor surface. When target molecules in solution bind to ligands, immobilised on the sensor surface, the mass increases, and when they dissociate from the ligands the mass decreases. This principle facilitates a continuous, real time monitoring of the association and dissociation of interacting molecules. The graphical presentation of the relationship provides quantitative information in real time on the binding specificity, active concentration of molecule in a sample, reaction kinetics and affinity. […]
Immobilisation occurred by direct covalent coupling to the surface (using the Amine Coupling Kit, BiaCore, GE Health Care) or via a capturing molecule as prescribed by the manufacturer (BiaCore, GE Health Care). The amount of coupled target was quantified and expressed in Refractive Units (RU). […]

Reactive Red 6 [RR6] gave a Kd [1] of 0.2 µM, a Ligand binding ka [1] of 20000 M⁻¹ s⁻¹ and a Ligand binding kd [1] of 0.004 s⁻¹. The Kd [2] was 10 µM and the “binding after injection is stopped” value [2] was “the binding is broken completely as soon as the injection is stopped”.
With C[C@H]1O[C@H](O[C@H]2[C@H](O)[C@@H](O)[C@@H](O[C@H]3[C@H](O)[C@@H](O)C(O)O[C@@H]3CO)O[C@@H]2CO)[C@H](O)[C@@H](O)[C@@H]1N[C@H]1C=C(CO)[C@@H](O)[C@H](O)[C@H]1O (stereo partly shown) [Acarbose] the kon ([3]; pH 5, read-out: Ligand binding ka) was 10000 M⁻¹ s⁻¹ and the koff ([3]; pH 5, read-out: Ligand binding kd) was 0.002 s⁻¹.
